The results in this text go back to US11046709B2, “Fused 1,4-diazepines as BET bromodomain inhibitors” (THE REGENTS OF THE UNIVERSITY OF MICHIGAN, priority 2017, dated 2021).

One test relates to MOLM-13. Briefly: Cell growth inhibition, 4-day proliferation assay, MOLM-13. As to conditions: Homo sapiens. The format is cell-based. On the procedure: (§1) The effect of representative Compounds of the Disclosure on cell viability was determined in a 4-day proliferation assay. Cells were maintained in the appropriate culture medium with 100/0 FBS at 37° C. and an atmosphere of 5% CO2. All the cell lines were used within three months of thawing fresh vials.
(§2) In general, cells were seeded in 96-well flat bottom (Corning COSTAR, Corning, N.Y., cat #3595) or white opaque cell culture plates (BD Falcon, cat #353296) at a density of 3,000-10,000 cells/well in 75 μl of culture medium. Compounds were serially diluted in the appropriate medium, and 75 μl of the diluted compounds were added to the appropriate wells of the cell plate. After the addition of compounds, the cells were incubated at 37° C. in an atmosphere of 5% CO2 for 4 days. Cell viability was determined using the CellTiter-Glo® Luminescent Cell Viability Assay Kit (Promega, Madison, Wis.) for leukemia cells and WST (2-(2-methoxy-4-nitrophenyl)-3-(4-nitrophenyl)-5-(2,4-disulfophenyl)-2H-tetrazolium, monosodium salt) Cell Counting-8 Kit (Dojindo Molecular Technologies, Inc., Rockville, Md.) for adherent cells according to the manufacturers' instructions.
(§3) For WST assay (adherent cells), WST-8 reagent was added to each well at a final concentration of 10% (v/v), and then the plates were incubated at 37° C. for 1-2 hours for color development. The absorbance was measured at 450 nm using a SPECTRAmax PLUS plate reader (Molecular Devices, Sunnyvale, Calif.). The readings were normalized to the DMSO-treated cells and the half maximal inhibitory concentration (IC50) was calculated by nonlinear regression (four parameters sigmoid fitted with variable slope, least squares fit, and no constraint) analysis using the GraphPad Prism 5 software (GraphPad Software, La Jolla, Calif.).
(§4) For CellTiter-Glo assay (suspension cells), 100 μl of CellTiter-Glo® Reagent was added to each well, and then the plates were incubated at room temperature for 10-20 minutes. The luminescent signal was measured using a Tecan Infinite M1000 multimode microplate reader (Tecan, Morrisville, N.C.). The readings were normalized to the DMSO-treated cells and the IC50 was calculated by nonlinear regression (four parameters sigmoid fitted with variable slope, least squares fit, and no constraint) analysis using the GraphPad Prism 5 software. See US 2014/0256706.
(§5) For a number of representative compounds in Table 5, their IC50 values in cell growth inhibition activity in the RS4;11 and MOLM-13 human leukemia cell lines and the MDA-MB-231 breast cancer cell line were evaluated using the WST-8 assay described in EXAMPLE 7, with the data shown in Table 7.

A further test relates to MDA-MB-231. Put plainly: Cell growth inhibition, 4-day proliferation assay, MDA-MB-231. The format is cell-based. The following applies: Homo sapiens. How it is done: as §1, §2, §3, §4, §5
A further test addresses T1, recombinant BRD4 BD2 (Homo sapiens, UniProt O60885).
T1 construct: for recombinant BRD4 BD1 and BRD4 BD2 proteins
Briefly: Competitive fluorescence-polarization (FP) binding assay, BRD4 BD2. How it is done:
Fluorescence Polarization (FP) competitive binding studies were carried out using a FAM labeled fluorescent probe, see, e.g., Cpd. No. 350 of US 2014/0256706, to determine binding affinities of representative Compounds of the Disclosure for recombinant BRD4 BD1 and BRD4 BD2 proteins. Equilibrium dissociation constants (Kd) values of the fluorescent probe to BRD4 BD1 and BD2 proteins were determined from protein saturation experiments by monitoring the total fluorescence polarization of mixtures composed with the fluorescent probe at a fixed concentration and proteins with increasing concentrations up to full saturation. Serial dilutions of testing proteins were mixed with the fluorescent probe to a final volume of 200 μl in the assay buffer (100 mM phosphate buffer, pH=6.5, 0.01% Triton X-100 (Sigma, 282103) being added right before assays). Final fluorescent probe concentration was 1.5 nM for both proteins. Plates were incubated at room temperature for 30 minutes with gentle shaking to assure equilibrium. FP values in millipolarization units (mP) were measured using the Infinite M-1000 plate reader (Tecan U.S., Research Triangle Park, N.C.) in Microfluor 1 96-well, black, round-bottom plates (Thermo Scientific, Waltham, Mass.) at an excitation wavelength of 485 nm and an emission wavelength of 530 nm. Kd values of the fluorescent probe, which were calculated by fitting the sigmoidal dose-dependent FP increases as a function of protein concentrations using Graphpad Prism 6.0 software (Graphpad Software, San Diego, Calif.), are 5.5 and 3.0 nM to BDR4 BD1 and 2, respectively.
The IC50 and Ki values of compounds were determined in a competitive binding experiment. See US 2014/0256706. Mixtures of 10 μl of the tested compounds in assay buffer with 40% Ethylene Glycol and 190 μl of preincubated protein/probe complex solution in the assay buffer (100 mM potassium phosphate, pH 6.5, 0.01% Triton X-100) were added into assay plates which were incubated at room temperature for 30 minutes with gentle shaking. Final concentrations of proteins were 10 and 6 nM in assays for BRD4 BD1 and BD2, respectively. Final probe concentration is 1.5 nM in both assays. Negative controls containing protein/probe complex only (equivalent to 0% inhibition), and positive controls containing only free probes (equivalent to 100% inhibition), were included in each assay plate. FP values were measured as described above. IC50 values were determined by nonlinear regression fitting of the competition curves. Instead of being calculated from IC50 values as described before. Ki values of competitive inhibitors were obtained directly by nonlinear regression fitting as well, based upon the Kd values of the probe to different proteins, and concentrations of the proteins and probes in the competitive assays (US 2014/0256706; Wang, FEBS Lett. 360:111 (1995); Zhang et al., Analytical Biochemistry, 331:138 (2004)).
Representative compounds in Table 5 were evaluated for their binding affinities to BRD4 BD1 and BD2 proteins using the Competitive Fluorescence-Polarization (FP) Assays described in Example 6, with the data included in Table 6.

[1] abbreviates: MOLM-13, WST-8 assay, Table 7, read-out: Cell growth inhibition (IC50 (nM)) MOLM-13.
Where [2] appears, read: MDA-MB-231, WST-8 assay, Table 7, read-out: Cell growth inhibition (IC50 (nM)) MDA-MB-231.

Where two headings read alike, the source gives them in different places.

A word on the IC50: it is the concentration at which inhibition is half-maximal. Regarding `Cc1nnc(C[C@@H]2N=C(c3ccc(Cl)cc3)c3c(sc(C#CC(C)C)c3C)-n3c(C)nnc32)o1` [Compound 148, (S)-2-((4-(4-chlorophenyl)-3,9-dimethyl-2-(3-methylbut-1-yn-1-yl)-6H-thieno[3,2-f][1,2,4]triazolo[4,3-a][1,4]diazepin-6-yl)methyl)-5-methyl-1,3,4-oxadiazole], the IC50 in the test with MOLM-13 (setting [1]) came to 6 nM; in the test with MDA-MB-231 (setting [2]), 7.7 nM.
Taken in the same sequence, the figures for `Cc1c(C#Cc2cnn(C)c2)sc2c1C(c1ccc(Cl)cc1)=N[C@@H](CC(=O)N1CCN(C(=O)OC(C)(C)C)CC1)c1nnc(C)n1-2` [Compound 160, tert-butyl (S)-4-(2-(4-(4-chlorophenyl)-3,9-dimethyl-2-((1-methyl-1H-pyrazol-4-yl)ethynyl)-6H-thieno[3,2-f][1,2,4]triazolo[4,3-a][1,4]diazepin-6-yl)acetyl)piperazine-1-carboxylate] were 8.5 nM and 108 nM.
Taken in the same sequence, the figures for `Cc1c(C#Cc2cnn(C)c2)sc2c1C(c1ccc(Cl)cc1)=N[C@@H](CC(=O)N1CCNCC1)c1nnc(C)n1-2` [Compound 161, (S)-2-(4-(4-chlorophenyl)-3,9-dimethyl-2-((1-methyl-1H-pyrazol-4-yl)ethynyl)-6H-thieno[3,2-f][1,2,4]triazolo[4,3-a][1,4]diazepin-6-yl)-1-(piperazin-1-yl)ethan-1-one] were 10.9 nM and 76.2 nM.
Taken in the same sequence, the figures for `Cc1c(C#Cc2cnn(C)c2)sc2c1C(c1ccc(Cl)cc1)=N[C@@H](CC(=O)N1CCN(C)CC1)c1nnc(C)n1-2` [Compound 162, (S)-2-(4-(4-chlorophenyl)-3,9-dimethyl-2-((1-methyl-1H-pyrazol-4-yl)ethynyl)-6H-thieno[3,2-f][1,2,4]triazolo[4,3-a][1,4]diazepin-6-yl)-1-(4-methylpiperazin-1-yl)ethan-1-one] were 19.2 nM and 109 ± 38 nM.
For `Cc1c(C#Cc2cncn2C)sc2c1C(c1ccc(Cl)cc1)=N[C@@H](CC(=O)N1CCN(C(=O)OC(C)(C)C)CC1)c1nnc(C)n1-2` [Compound 163, tert-butyl (S)-4-(2-(4-(4-chlorophenyl)-3,9-dimethyl-2-((1-methyl-1H-imidazol-5-yl)ethynyl)-6H-thieno[3,2-f][1,2,4]triazolo[4,3-a][1,4]diazepin-6-yl)acetyl)piperazine-1-carboxylate], the IC50 with MOLM-13 (setting [1]) is 33.1 nM; with MDA-MB-231 (setting [2]), 362 nM.
Consider `Cc1c(C#Cc2cncn2C)sc2c1C(c1ccc(Cl)cc1)=N[C@@H](CC(=O)N1CCNCC1)c1nnc(C)n1-2` [Compound 164], for which the 50% inhibitory concentration (IC50) in the test with MOLM-13 (setting [1]) worked out at 85.4 nM; with MDA-MB-231 (setting [2]), 304 nM.
Consider `Cc1c(C#Cc2cn[nH]c2)sc2c1C(c1ccc(Cl)cc1)=NCc1nnc(C)n1-2` [Cpd. No. 21, 2-((1H-pyrazol-4-yl)ethynyl)-4-(4-chlorophenyl)-3,9-dimethyl-6H-thieno[3,2-f][1,2,4]triazolo[4,3-a][1,4]diazepine], for which, on recombinant BRD4 BD2, the 50% inhibitory concentration (IC50) amounted to 37.4 nM.
Still for that read-out and setting: the figure for `Cc1c(C#Cc2cn[nH]c2)sc2c1C(c1ccc(Cl)cc1)=N[C@@H](C)c1nnc(C)n1-2` [Cpd. No. 22, (S)-2-((1H-pyrazol-4-yl)ethynyl)-4-(4-chlorophenyl)-3,6,9-trimethyl-6H-thieno[3,2-f][1,2,4]triazolo[4,3-a][1,4]diazepine] is 7.68 nM; for `Cc1c(C#CC2CCCC2)sc2c1C(c1ccc(Cl)cc1)=N[C@@H](C)c1nnc(C)n1-2` [Cpd. No. 29, (S)-4-(4-chlorophenyl)-2-(cyclopentylethynyl)-3,6,9-trimethyl-6H-thieno[3,2-f][1,2,4]triazolo[4,3-a][1,4]diazepine] it is 10.3 nM; for `Cc1c(C#Cc2cncn2C)sc2c1C(c1ccc(Cl)cc1)=N[C@@H](C)c1nnc(C)n1-2` [Cpd. No. 30, (S)-4-(4-chlorophenyl)-3,6,9-trimethyl-2-((1-methyl-1H-imidazol-5-yl)ethynyl)-6H-thieno[3,2-f][1,2,4]triazolo[4,3-a][1,4]diazepine] it is 13.5 nM.
Same read-out and setting: in the case of `Cc1c(C#Cc2ccc(F)cn2)sc2c1C(c1ccc(Cl)cc1)=N[C@@H](C)c1nnc(C)n1-2` [Cpd. No. 31, (S)-4-(4-chlorophenyl)-2-((5-fluoropyridin-2-yl)ethynyl)-3,6,9-trimethyl-6H-thieno[3,2-f][1,2,4]triazolo[4,3-a][1,4]diazepine] it was 19.5 nM.
The same measure, in the same setting: in the case of `Cc1c(C#Cc2ccc(N)cn2)sc2c1C(c1ccc(Cl)cc1)=N[C@@H](C)c1nnc(C)n1-2` [Cpd. No. 32, (S)-6-((4-(4-chlorophenyl)-3,6,9-trimethyl-6H-thieno[3,2-f][1,2,4]triazolo[4,3-a][1,4]diazepin-2-yl)ethynyl)pyridin-3-amine] it was 9.87 nM.
Regarding `Cc1c(C#CCN2CCN(C)CC2)sc2c1C(c1ccc(Cl)cc1)=N[C@@H](C)c1nnc(C)n1-2` [Cpd. No. 33, (S)-4-(4-chlorophenyl)-3,6,9-trimethyl-2-(3-(4-methylpiperazin-1-yl)prop-1-yn-1-yl)-6H-thieno[3,2-f][1,2,4]triazolo[4,3-a][1,4]diazepine], the IC50 at recombinant BRD4 BD2 stood at 42.2 nM.
Same read-out and setting: the figure for `Cc1c(C#Cc2cncs2)sc2c1C(c1ccc(Cl)cc1)=N[C@@H](C)c1nnc(C)n1-2` [Cpd. No. 34, (S)-4-(4-chlorophenyl)-3,6,9-trimethyl-2-(thiazol-5-ylethynyl)-6H-thieno[3,2-f][1,2,4]triazolo[4,3-a][1,4]diazepine] is 21.8 nM; for `Cc1c(C#Cc2nccs2)sc2c1C(c1ccc(Cl)cc1)=N[C@@H](C)c1nnc(C)n1-2` [Cpd. No. 35, (S)-4-(4-chlorophenyl)-3,6,9-trimethyl-2-(thiazol-2-ylethynyl)-6H-thieno[3,2-f][1,2,4]triazolo[4,3-a][1,4]diazepine] it is 22 nM.
With `Cc1c(C#Cc2ccc(O)cn2)sc2c1C(c1ccc(Cl)cc1)=N[C@@H](C)c1nnc(C)n1-2` [Cpd. No. 42], the half-inhibitory concentration (IC50) with MOLM-13 (MOLM-13, 96 h, read-out: Cell IC50 (nM) MOLM13) was found to be 10.6 nM; in the test on MDA-MB-231 (MDA-MB-231, 96 h, read-out: Cell IC50 (nM) MDA-MB-231), 7.9 nM.
